The values that follow are results of earlier work, collected in patent publication US20100297232A1, “ONDANSETRON FILM COMPOSITIONS” (MonoSol Rx, LLC, priority 2009, published 2010).

Each structure is given as a SMILES string. Read-outs that look alike come from different tables or passages of the source.

Take `Cc1nccn1CC1CCc2c(c3ccccc3n2C)C1=O` (centres unmarked) [ondansetron base, ondansetron]: the solubility result runs as follows: (pH 1.2 and below) “soluble”; (pH 8) “practically insoluble”.
